In patent EP0974593A1, “Artemisinin derivatives as antiparasitic agents” (The Hong Kong University of Science & Technology, priority 1998, dated 2000):
Values after ≈ are worked out from the molar mass of the structure shown. Like-named read-outs stand apart in the source and are kept apart here.

Tests used:
[1] = tested on: Plasmodium Falciparum D6 strain (chloroquine sensitive); test: In vitro activity against Plasmodium falciparum, 3H-hypoxanthine incorporation assay, D6 strain; type: cell-based; conditions: D6, 66 h; for IC50 / IC90: Plasmodium falciparum; for IC50: read-out: In vitro activity: IC50; for IC90: read-out: In vitro activity: IC90
Description: (§1) (a) InVitro Activity against Plasmodium Falciparum
(§2) Two parasite strains - W2 resistant to chloroquine, and D6 sensitive to chloroquine but […] were used. In Table I below, the best compounds should show no cross resistance between the two strains.
(§3) The assay relies on incorporation of radiolabelled hypoxanthine by the parasite and inhibition of incorporation is attributed to activity of known or candidate antimalarial drugs. For each assay, proven antimalarials such as chloroquine, mefloquine, quinine, artemisinin and pyrimethamine were used as controls. The incubation period was 66 hours, and the starting parasitemia was 0.2% with 1% hematocrit. The medium was an RPMI-1640 culture with no folate or p-aminobenzoic acid. Albumax rather than 10% normal heat inactivated human plasma was used as, with Albumax, less protein binding is observed, and compounds elicit slightly higher activities in this model. If a compound was submitted with no prior knowledge of activity, it was dissolved directly in dimethyl sulphoxide (DMSO), and diluted 400 fold with complete culture medium. […]. These dilutions were performed automatically by a Biomek 1000 Liquid Handling System in 96-well microtiter plates. The diluted drugs were then transferred to test plates, 200 µL of parasitized erythrocytes were added, and incubated at 37°C in a controlled environment of 5% CO2, 5% O2 and 90% N2. After […], 25 µL of ^3H-hypoxanthine was added, and the plates incubated for an additional 24 hours. After 66 hours, the plates were frozen at -70°C to lyse the red cells, and then thawed and harvested onto glass fiber filter mats in a 96-well harvester. The filter mats were then counted in a scintillation counter. For each drug, the concentration response profile was determined and 50% and 90% inhibitory concentrations (IC50, IC90 […]) were determined by a non-linear logistic dose response analysis program.
(§4) A prescreen format can be used wherein a 3-dilution assay may be used to determine activity at high medium or low concentrations. […]. These were performed in duplicate on a 96-well format plate with 14 test compounds and one known (standard) compound per plate. The system was automated with a Biomek diluter for mixing and diluting the drugs, and adding drugs and parasites to a test plate.
(§5) In the prescreen format, if the ANALYSIS FIELD (AF) has a "<", then the compound was "very active" and the IC values are most likely to be below the last dilution value (in nanograms/ml), which is listed next to AF. In most cases, these compounds were run again at lower starting concentration to determine the true IC value. If the AF has a ">", then the IC value is greater than the prescreen dilution value; thus "AF>250" means that the IC value is greater than 250 ng ml^-1 and no further screening is carried out. In such cases, values of 0.00 are entered for IC values.

[2] = tested on: Plasmodium Falciparum W2 strain (chloroquine resistant); test: In vitro activity against Plasmodium falciparum, 3H-hypoxanthine incorporation assay, W2 strain; type: cell-based; conditions: W2, 66 h; for IC50 / IC90: Plasmodium falciparum
Description: as §1, §2, §3, §4, §5

[3] = D6 strain (chloroquine sensitive, resistant to mefloquine), 66 hours incubation, Albumax medium
[4] = read-out: In vitro activity: IC50, W2 strain (chloroquine resistant), 66 hours incubation, Albumax medium
[5] = read-out: In vitro activity: IC90, W2 strain (chloroquine resistant), 66 hours incubation, Albumax medium

Row | IC50 [1, 3] [ng/mL] | IC90 [1, 3] [ng/mL] | IC50 [2, 4] [ng/mL] | IC90 [2, 5] [ng/mL] | Structure (SMILES) | IC50 [1] [ng/mL] | IC90 [1] [ng/mL] | IC50 ([2]; read-out: In vitro activity: IC50) [ng/mL] | IC90 ([2]; read-out: In vitro activity: IC90) [ng/mL] | In vitro activity: (IC10) [1] [ng/mL] | In vitro activity: (IC10) [2] [ng/mL]
1 | 0.64 (≈ 1.64 nM) | 0.99 (≈ 2.54 nM) | 0.775 (≈ 1.99 nM) | 0.975 (≈ 2.5 nM) | C[C@@H]1CC[C@H]2[C@@H](C)C(=O)N(Cc3ccccc3F)[C@@H]3O[C@@]4(C)CC[C@@H]1[C@@]23OO4 [Example 2, 11-aza-N-(2-fluorobenzyl)artemisinin] |  |  |  |  |  | 
2 | 0.79 (≈ 2.03 nM) | 1.26 (≈ 3.24 nM) | 0.58 (≈ 1.49 nM) | 0.95 (≈ 2.44 nM) | C[C@@H]1CC[C@H]2[C@@H](C)C(=O)N(Cc3cccc(F)c3)[C@@H]3O[C@@]4(C)CC[C@@H]1[C@@]23OO4 [Example 5] |  |  |  |  |  | 
3 | 3.62 (≈ 9.74 nM) | 6.68 (≈ 18 nM) | 3.8 (≈ 10.2 nM) | 4.68 (≈ 12.6 nM) | C[C@@H]1CC[C@H]2[C@@H](C)C(=O)N(Cc3ccccc3)[C@@H]3O[C@@]4(C)CC[C@@H]1[C@@]23OO4 [Example 6] |  |  |  |  |  | 
4 |  |  |  |  | C[C@@H]1CC[C@H]2[C@@H](C)C(=O)N[C@@H]3O[C@@]4(C)CC[C@@H]1[C@]32OO4 [Example 1, 11-azaartemisinin] | 2.6 (≈ 9.24 nM) | 3.6 (≈ 12.8 nM) | 1.73 (≈ 6.15 nM) | 2.24 (≈ 7.96 nM) |  | 
5 |  |  |  |  | C[C@@H]1CC[C@H]2[C@@H](C)C(=O)N(Cc3ccc(F)cc3)[C@@H]3O[C@@]4(C)CC[C@@H]1[C@@]23OO4 [Example 4] |  |  |  |  | 1.13 | 0.31
